# Laboratory results taken from patent US8916702B2 (priority 2012, dated 2014).
# Test system: HCV pseudoparticles (genotype 1a HCV E1 and E2 envelope, H77C isolate)
# Assay: microbe, parasite or virus in culture
# Assay type: cell-based
# Conditions: Hepatitis C virus, GETYPE1A, Huh-7, 48 h, read-out: Activity (EC50 class), HCV pseudoparticle infection of Huh7 cells, luciferase 2 days after infection; EC50 expressed as class A/B
row,SMILES,EC50 [nM]
1,CC(C)(CNC(=O)C(=O)NCC1CC1)CNC(=O)c1ccc(Nc2nc(NC3(c4ccc(Cl)cc4)CC3)nc(OCC(F)(F)F)n2)cc1 [Compound 1032],0.01 to 10

# Same assay, conditions: Hepatitis C virus, Huh-7, 48 h, HCV pseudoparticle infection of Huh7 cells, luciferase 2 days after infection; average of duplicates
row,SMILES,EC50 [nM]
1,O=C(NCC[C@H](NC(=O)c1ccc(Nc2nc(NC3(c4ccc(Cl)cc4)CC3)nc(OCC(F)(F)F)n2)cc1)C(=O)O)C(=O)NCC1CCCOC1 (stereo partly drawn) [Compound 1208],0.21
2,O=C(NC[C@H](NC(=O)c1ccc(Nc2nc(NC3(c4ccc(Cl)cc4)CC3)nc(OCC(F)(F)F)n2)cc1)C(=O)O)C(=O)Nc1cc[nH]n1 [Compound 1353],1.66

# Same assay, conditions: Hepatitis C virus, Huh-7, 48 h, HCV pseudoparticles (genotype 1a, H77C) in Huh7 cells; average of duplicate; luciferase 2 days after infection
row,SMILES,EC50 [nM]
1,CC(C)(CNC(=O)C(=O)NO)CNC(=O)c1ccc(Nc2nc(NC3(c4ccc(Cl)cc4)CC3)nc(OCC(F)(F)F)n2)cc1 [Compound 3074],0.054
2,CC(C)(CNC(=O)C(=O)Nc1ccc(OC(F)F)cc1)CNC(=O)c1ccc(Nc2nc(NC3(c4ccc(Cl)cc4)CC3)nc(OCC(F)(F)F)n2)cc1 [Compound 3146],0.05
3,CN(CCCNC(=O)c1ccc(Nc2nc(NC3(c4ccc(Cl)cc4)CC3)nc(OCC(F)(F)F)n2)cc1)C(=O)C(=O)Nc1ccc(F)cc1 [Compound 3448],0.059
4,CC(C)(CNC(=O)C(=O)Nc1ccc(C(=O)c2ccc(N)cc2)cc1)CNC(=O)c1ccc(Nc2nc(NC3(c4ccc(Cl)cc4)CC3)nc(OCC(F)(F)F)n2)cc1 [Compound 3264],0.24

# Same assay, conditions: Hepatitis C virus, Huh-7, 48 h, HCV pseudoparticles, Huh7 cells, luciferase 2 days after infection; average of duplicates
row,SMILES,EC50 [nM]
1,"NC(=O)C(=O)NCC(CO)(CO)CNC(=O)c1ccc(Nc2nc(NC3(c4ccc(Cl)cc4)CC3)nc(OCC(F)(F)F)n2)cc1 [Compound 3838, N^1-(3-(4-((4-((1-(4-chlorophenyl)cyclopropyl)amino)-6-(2,2,2-trifluoroethoxy)-1,3,5-triazin-2-yl)amino)benzamido)-2,2-bis(hydroxymethyl)propyl)oxalamide]",0.052

# Same assay, conditions: Hepatitis C virus, Huh-7, 48 h, read-out: Activity (EC50 class), HCV pseudoparticle infection of Huh7 cells, luciferase 2 days after infection; EC50 expressed as class A/B
row,SMILES,EC50 [nM]
1,O=C(NC[C@H]1CCC[C@H]1NC(=O)c1ccc(Nc2nc(NC3(c4ccc(Cl)cc4)CC3)nc(OCC(F)(F)F)n2)cc1)C(=O)Nc1ccc(F)cc1 [Compound 1474],0.01 to 10
2,O=C(NCC[C@H](NC(=O)c1ccc(Nc2nc(NC3(c4ccc(Cl)cc4)CC3)nc(OCC(F)(F)F)n2)cc1)C(=O)O)C(=O)NC1(Cc2ccccc2)CC1 [Compound 1346],0.01 to 10
3,COC(=O)[C@H](CCNC(=O)C(=O)NC1CCCC(C)C1)NC(=O)c1ccc(Nc2nc(NC3(c4ccc(Cl)cc4)CC3)nc(OCC(F)(F)F)n2)cc1 (stereo partly drawn) [Compound 1076],0.01 to 10
4,COC(=O)[C@@H](CCNC(=O)C(=O)NCC1(CN2CCOCC2)CC1)NC(=O)c1ccc(Nc2nc(NC3(c4ccc(Cl)cc4)CC3)nc(OCC(F)(F)F)n2)cc1 [Compound 1382],0.01 to 10
5,CC(C)[C@@H]1CC[C@@H](C)C[C@H]1NC(=O)C(=O)NC[C@H](NC(=O)c1ccc(Nc2nc(NC3(c4ccc(Cl)cc4)CC3)nc(OCC(F)(F)F)n2)cc1)C(=O)O [Compound 1095],0.01 to 10
6,O=C(NCC[C@H](NC(=O)c1ccc(Nc2nc(NC3(c4ccc(Cl)cc4)CC3)nc(OCC(F)(F)F)n2)cc1)C(=O)O)C(=O)NCc1cccc(F)c1 [Compound 1178],0.01 to 10
7,O=C(NCC[C@H](NC(=O)c1ccc(Nc2nc(NC3(c4ccc(Cl)cc4)CC3)nc(OCC(F)(F)F)n2)cc1)C(=O)O)C(=O)NCC1CCCOC1 (stereo partly drawn) [Compound 1208],0.01 to 10
8,CC(C)(CNC(=O)C(=O)Nc1ccccc1-c1ccccc1)CNC(=O)c1ccc(Nc2nc(NC3(c4ccc(Cl)cc4)CC3)nc(OCC(F)(F)F)n2)cc1 [Compound 1572],0.01 to 10
9,COC(=O)[C@H](CNC(=O)C(=O)NCCn1cccn1)NC(=O)c1ccc(Nc2nc(NC3(c4ccc(Cl)cc4)CC3)nc(OCC(F)(F)F)n2)cc1 [Compound 1300],0.01 to 10
10,COC(=O)[C@H](CCNC(=O)C(=O)Nc1cccc(C(F)(F)F)c1)NC(=O)c1ccc(Nc2nc(NC3(c4ccc(Cl)cc4)CC3)nc(OCC(F)(F)F)n2)cc1 [Compound 1229],0.01 to 10
11,O=C(NCC[C@H](NC(=O)c1ccc(Nc2nc(NC3(c4ccc(Cl)cc4)CC3)nc(OCC(F)(F)F)n2)cc1)C(=O)O)C(=O)NCc1cc(F)ccc1F [Compound 1189],0.01 to 10
12,CC(C)(CNC(=O)C(=O)NCc1ccc(F)cc1)CNC(=O)c1ccc(Nc2nc(NC3(c4ccc(Cl)cc4)CC3)nc(OCC(F)(F)F)n2)cc1 [Compound 1549],0.01 to 10
13,"CC(C)(CNC(=O)C(=O)NCc1ccc(F)cc1F)CNC(=O)c1ccc(Nc2nc(NC3(c4ccc(Cl)cc4)CC3)nc(OCC(F)(F)F)n2)cc1 [Compound 1034, N1-(3-(4-(4-(1-(4-chlorophenyl)cyclopropylamino)-6-(2,2,2-trifluoroethoxy)-1,3,5-triazin-2-ylamino)benzamido)-2,2-dimethylpropyl)-N2-(2,4-difluorobenzyl)oxalamide]",0.01 to 10
14,O=C(NC[C@H](NC(=O)c1ccc(Nc2nc(NC3(c4ccc(Cl)cc4)CC3)nc(OCC(F)(F)F)n2)cc1)C(=O)O)C(=O)Nc1cc[nH]n1 [Compound 1353],0.01 to 10
15,O=C(NCC[C@H](NC(=O)c1ccc(Nc2nc(NC3(c4ccc(Cl)cc4)CC3)nc(OCC(F)(F)F)n2)cc1)C(=O)O)C(=O)NCC1(CN2CCOCC2)CC1 [Compound 1426],0.01 to 10
16,COC(=O)[C@H](CCNC(=O)C(=O)N[C@H]1C[C@@H]2C[C@@H]([C@@H]1C)C2(C)C)NC(=O)c1ccc(Nc2nc(NC3(c4ccc(Cl)cc4)CC3)nc(OCC(F)(F)F)n2)cc1 [Compound 1110],0.01 to 10
17,CN1CCCC1CCNC(=O)C(=O)NC[C@H](NC(=O)c1ccc(Nc2nc(NC3(c4ccc(Cl)cc4)CC3)nc(OCC(F)(F)F)n2)cc1)C(=O)O (stereo partly drawn) [Compound 1040],10 to 1000
18,CN1CCN(CC2(CNC(=O)C(=O)NCC[C@H](NC(=O)c3ccc(Nc4nc(NC5(c6ccc(Cl)cc6)CC5)nc(OCC(F)(F)F)n4)cc3)C(=O)O)CC2)CC1 [Compound 1432],0.01 to 10
19,COC(=O)C(CNC(=O)C(=O)NC1CCN(C(=O)OC(C)(C)C)CC1)NC(=O)c1ccc(Nc2nc(NC3(c4ccc(Cl)cc4)CC3)nc(OCC(F)(F)F)n2)cc1 (stereo not drawn) [Compound 1049],0.01 to 10
20,O=C(NCC[C@H](NC(=O)c1ccc(Nc2nc(NC3(c4ccc(Cl)cc4)CC3)nc(OCC(F)(F)F)n2)cc1)C(=O)O)C(=O)Nc1ccc(C(F)(F)F)cc1 [Compound 1275],0.01 to 10
21,COC(=O)C(CNC(=O)C(=O)NC1CC(C)(C)CC(C)(C)C1)NC(=O)c1ccc(Nc2nc(NC3(c4ccc(Cl)cc4)CC3)nc(OCC(F)(F)F)n2)cc1 (stereo not drawn) [Compound 1047],0.01 to 10

# Same assay, conditions: Hepatitis C virus, Huh-7, 48 h, read-out: Activity (EC50 class), HCV pseudoparticles, Huh7 cells, luciferase 2 days after infection; average of duplicates
row,SMILES,EC50 [nM]
1,"NC(=O)C(=O)NCC(CO)(CO)CNC(=O)c1ccc(Nc2nc(NC3(c4ccc(Cl)cc4)CC3)nc(OCC(F)(F)F)n2)cc1 [Compound 3838, N^1-(3-(4-((4-((1-(4-chlorophenyl)cyclopropyl)amino)-6-(2,2,2-trifluoroethoxy)-1,3,5-triazin-2-yl)amino)benzamido)-2,2-bis(hydroxymethyl)propyl)oxalamide]",0.01 to 10
2,COC(=O)[C@H](CCNC(=O)C(=O)Nc1cccc(OCc2ccccc2)c1)NC(=O)c1ccc(Nc2nc(NC3(c4ccc(Cl)cc4)CC3)nc(OCC(F)(F)F)n2)cc1 [Compound 3612],0.01 to 10
3,O=C(NC[C@H](NC(=O)c1ccc(Nc2nc(NC3(c4ccc(Cl)cc4)CC3)nc(OCC(F)(F)F)n2)cc1)C(=O)Cl)C(=O)Nc1cccc(-c2c[nH]cn2)c1 [Compound 3787],0.01 to 10
4,COc1cc(NC(=O)C(=O)NCC(C)(C)CNC(=O)c2ccc(Nc3nc(NC4(c5ccc(Cl)cc5)CC4)nc(OCC(F)(F)F)n3)cc2)ccc1-c1ccccc1 [Compound 3679],0.01 to 10
5,Cc1csc(-c2cccc(NC(=O)C(=O)NCC[C@H](NC(=O)c3ccc(Nc4nc(NC5(c6ccc(Cl)cc6)CC5)nc(OCC(F)(F)F)n4)cc3)C(=O)O)c2)n1 [Compound 3649],0.01 to 10
6,COC(=O)[C@H](CNC(=O)C(=O)Nc1ccc(Oc2ccc(Cl)cc2Cl)nc1)NC(=O)c1ccc(Nc2nc(NC3(c4ccc(Cl)cc4)CC3)nc(OCC(F)(F)F)n2)cc1 [Compound 3697],0.01 to 10
7,COc1ccc2nc(NC(=O)C(=O)NCC(C)(C)CNC(=O)c3ccc(Nc4nc(NC5(c6ccc(Cl)cc6)CC5)nc(OCC(F)(F)F)n4)cc3)sc2n1 [Compound 3803],0.01 to 10
8,COC(=O)[C@H](CNC(=O)C(=O)Nc1ccc(N)nc1)NC(=O)c1ccc(Nc2nc(NC3(c4ccc(Cl)cc4)CC3)nc(OCC(F)(F)F)n2)cc1 [Compound 3705],0.01 to 10

# Same assay, conditions: Hepatitis C virus, Huh-7, read-out: Activity (EC50 class), HCV pseudoparticles (genotype 1a, H77C) in Huh7 cells; EC50 expressed as class A/B
row,SMILES,EC50 [nM]
1,CC(C)(CNC(=O)C(=O)NO)CNC(=O)c1ccc(Nc2nc(NC3(c4ccc(Cl)cc4)CC3)nc(OCC(F)(F)F)n2)cc1 [Compound 3074],0.01 to 10
2,CC(F)Oc1ccc(NC(=O)C(=O)NC[C@H](NC(=O)c2ccc(Nc3nc(NC4(c5ccc(Cl)cc5)CC4)nc(OCC(F)(F)F)n3)cc2)C(=O)O)cc1 (stereo partly drawn) [Compound 3298],0.01 to 10
3,CC(C)(CNC(=O)C(N)=O)CNC(=O)c1ccc(Nc2nc(NC3(c4ccc(F)cc4)CC3)nc(OCC(F)(F)F)n2)cc1 [Compound 3247],0.01 to 10
4,CC(C)(CNC(=O)C(=O)Nc1ccc(OC(F)F)cc1)CNC(=O)c1ccc(Nc2nc(NC3(c4ccc(Cl)cc4)CC3)nc(OCC(F)(F)F)n2)cc1 [Compound 3146],0.01 to 10
5,Cc1nccn1-c1ccc(NC(=O)C(=O)NCC[C@H](NC(=O)c2ccc(Nc3nc(NC4(c5ccc(Cl)cc5)CC4)nc(OCC(F)(F)F)n3)cc2)C(=O)O)cc1 [Compound 3541],10 to 1000
6,COC(=O)[C@H](CCNC(=O)C(=O)Nc1ccc(N2Cc3ccccc3C2)cc1)NC(=O)c1ccc(Nc2nc(NC3(c4ccc(Cl)cc4)CC3)nc(OCC(F)(F)F)n2)cc1 [Compound 3306],0.01 to 10
7,CC(C)(CNC(=O)C(=O)Oc1cncs1)CNC(=O)c1ccc(Nc2nc(NC3(c4ccc(Cl)cc4)CC3)nc(OCC(F)(F)F)n2)cc1 [Compound 3179],0.01 to 10
8,Cc1cc(NC(=O)C(=O)NCCNC(=O)c2ccc(Nc3nc(NC4(c5ccc(Cl)cc5)CC4)nc(OCC(F)(F)F)n3)cc2)no1 [Compound 3372],0.01 to 10
9,O=C(NC[C@H](NC(=O)c1ccc(Nc2nc(NC3(c4ccc(Cl)cc4)CC3)nc(OCC(F)(F)F)n2)cc1)C(=O)O)C(=O)Nc1ccc(Cn2ccnc2)cc1 [Compound 3285],0.01 to 10
10,CN(CCCNC(=O)c1ccc(Nc2nc(NC3(c4ccc(Cl)cc4)CC3)nc(OCC(F)(F)F)n2)cc1)C(=O)C(=O)Nc1ccc(F)cc1 [Compound 3448],0.01 to 10
11,CC(C)(CNC(=O)C(=O)Nc1ccc(C(=O)c2ccc(N)cc2)cc1)CNC(=O)c1ccc(Nc2nc(NC3(c4ccc(Cl)cc4)CC3)nc(OCC(F)(F)F)n2)cc1 [Compound 3264],0.01 to 10
12,COC(=O)/C(CCNC(=O)C(=O)Nc1ccc(N)nc1)=N\C(=O)c1ccc(Nc2nc(NC3(c4ccc(Cl)cc4)CC3)nc(OCC(F)(F)F)n2)cc1 [Compound 3587],0.01 to 10
13,COC(=O)[C@@H](CCNC(=O)C(=O)Nc1cccc(-c2ccnc(C)n2)c1)NC(=O)c1ccc(Nc2nc(NC3(c4ccc(Cl)cc4)CC3)nc(OCC(F)(F)F)n2)cc1 [Compound 3583],0.01 to 10
14,COC(=O)[C@H](CCNC(=O)C(=O)Nc1ccc(-n2ccc(C(F)(F)F)n2)cc1)NC(=O)c1ccc(Nc2nc(NC3(c4ccc(Cl)cc4)CC3)nc(OCC(F)(F)F)n2)cc1 [Compound 3127],0.01 to 10
